Data on 3 compounds can be found in US20100221763A1, “Specific Acceptors for Transferases to Saccharides and Method for Obtaining and Using Same” (Health Research, Inc, priority 2005, published 2010).

Experiment [1] concerns α1,4-L-FT of breast tumor BC9400. Description: α1,4-L-FT assay, breast tumor extract. The class given is biochemical, human. To be noted: 1 mg protein of the tissue extract. As for the experimental part: (§1) Colon tumor tissue (CC9338) and breast tumor tissue (BC9400) were obtained during surgical procedures at Roswell Park Cancer Institute and stored frozen within 1 h at −70° C. The tissues were homogenized at 4° C. with 4 volumes of 0.1M Tris Maleate […] 0.1% NaN3 using kinematica. After adjusting the concentration of Triton X-100 to 2%, these homogenates were mixed in the cold room for 1 h using Speci-Mix (Thermolyne) and then centrifuged at 20,000 g for 1 h at 4° C. The clear fat-free supernatant was stored frozen at −20° C. until use. Aliquots of 10 μL from this extract were used in assays run in duplicates. Glycosyltransferase activity in cell lysate was determined by mixing the lysates with acceptor and radiolabeled donor (monosaccharide) under the reaction conditions detailed below, followed by separation of un-reacted donor from the radioactive product using anionic or hydrophobic chromatography. In all cases, the radioactive content of isolated products was determined by using 3a70 scintillation cocktail (Research Products International, Mount Prospect, Ill.) and a Beckman LS6500 scintillation counter. Controls for each assay contained the reaction mixture with everything except the acceptor. All assays were run in duplicate. […]

In experiment [2] the test system is α1,4-L-FT of colon tumor CC9338. Description: α1,4-L-FT assay, colon tumor extract. The format is biochemical, human. To be noted: 1 mg protein of the tissue extract. Here is the method:
as §1

The target in experiment [3] is T1, Rat recombinant α2,3(O)ST (Rattus norvegicus, UniProt Q11205).
T1 construct: purchased Calbiochem
T1 sequence (Q11205 1-350): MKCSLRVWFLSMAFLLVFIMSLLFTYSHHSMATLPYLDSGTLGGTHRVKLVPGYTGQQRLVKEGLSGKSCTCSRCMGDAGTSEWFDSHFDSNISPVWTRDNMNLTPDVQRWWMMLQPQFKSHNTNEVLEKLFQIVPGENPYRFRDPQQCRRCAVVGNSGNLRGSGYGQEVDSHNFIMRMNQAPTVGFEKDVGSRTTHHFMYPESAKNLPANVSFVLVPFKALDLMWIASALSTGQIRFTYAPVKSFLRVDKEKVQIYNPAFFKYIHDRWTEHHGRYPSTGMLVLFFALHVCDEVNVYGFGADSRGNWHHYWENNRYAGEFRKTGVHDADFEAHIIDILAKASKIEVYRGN
The experiment is described as follows: Sialyltransferase assay with cloned α2,3(O)ST. The class given is biochemical. To be noted: for acceptor efficiency for cloned α2,3(O)ST (FIG. 6C): compared to Galβ1,3GalNAcβ1,3Galα-O-Me.

Experiment [4] deals with α1,3-L-FT of breast tumor BC9400. Description: α1,3-L-FT assay, breast tumor extract. The class given is biochemical, human. To be noted: 1 mg protein of the tissue extract. Here is the method:
as §1

Structures are written as SMILES.

For the compound `CO[C@H]1[C@H](O[C@H]2[C@H](O)[C@@H](CO)OC(O)[C@@H]2NC(C)=O)O[C@H](CO)[C@H](O)[C@@H]1O` (stereo partly drawn) [2-O-MeGalβ1,3GlcNAc], the results for the “α1,4-L-FT activity: incorporation of radioactive sugar” value in experiment [1] and in experiment [2] were 4.6 CPM × 10^−3 and 727.5 CPM × 10^−3, respectively.
`CO[C@H]1O[C@H](CO)[C@H](O)[C@H](O[C@@H]2O[C@H](CO)[C@H](O)[C@H](O[C@@H]3O[C@H](C)[C@H](O)[C@H](O)[C@H]3O)[C@H]2NC(C)=O)[C@H]1O` [D-Fucβ1,3GalNAcβ1,3Galα-O-Me]: the “acceptor efficiency for cloned α2,3(O)ST (FIG. 6C)” value was “about 50%” in experiment [3] (0.15 mM) and about 100% in experiment [3] (0.75 mM). Moreover, the “Sialyltransferase activity (%) Cloned α2,3(O)ST” value in experiment [3] (Table I, acceptor 7.5 mM, 100% = 40560 CPM (3-O-MeGalβ1,4GlcNAcβ1,6(Galβ1,3)GalNAcα-O-Bn), listed as D-Fucβ1,3GalNAcβ1,3-Gal-O-Me) was determined as 115.6%.
With `CO[C@H]1[C@H](O[C@H]2[C@H](O)[C@@H](NC(C)=O)C(O)O[C@@H]2CO)O[C@H](CO)[C@H](O)[C@@H]1O` (stereo partly drawn) [2-O-MeGalβ1,4GlcNAc], the “α1,3-L-FT activity: incorporation of radioactive sugar” value in experiment [4] is listed as 30.5 CPM × 10^−3.
